Holding throughout (assay type): biochemical
The target in experiment [1] is T1, CYP1A1 (Homo sapiens, UniProt P04798).
T1 sequence (P04798 1-512): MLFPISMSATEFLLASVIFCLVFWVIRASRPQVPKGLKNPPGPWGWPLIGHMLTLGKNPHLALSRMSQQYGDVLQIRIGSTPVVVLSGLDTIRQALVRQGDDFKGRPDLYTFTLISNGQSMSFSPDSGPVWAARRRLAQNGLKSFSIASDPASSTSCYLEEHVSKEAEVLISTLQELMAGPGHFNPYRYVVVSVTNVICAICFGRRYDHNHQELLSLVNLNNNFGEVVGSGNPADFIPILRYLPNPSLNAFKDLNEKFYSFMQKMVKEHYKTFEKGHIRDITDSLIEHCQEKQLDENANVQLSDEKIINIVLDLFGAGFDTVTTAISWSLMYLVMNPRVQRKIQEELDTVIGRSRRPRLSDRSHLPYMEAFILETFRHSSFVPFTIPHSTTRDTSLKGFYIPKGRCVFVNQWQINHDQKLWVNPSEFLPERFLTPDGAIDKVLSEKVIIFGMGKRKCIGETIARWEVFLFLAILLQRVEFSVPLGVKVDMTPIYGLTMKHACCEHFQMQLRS
Nature of the experiment: P450-Glo CYP1A1 luminescence assay, recombinant enzyme in microsomes.

A further experiment deals with T2, CYP1A2 (Homo sapiens, UniProt P05177).
T2 sequence (P05177 2-516): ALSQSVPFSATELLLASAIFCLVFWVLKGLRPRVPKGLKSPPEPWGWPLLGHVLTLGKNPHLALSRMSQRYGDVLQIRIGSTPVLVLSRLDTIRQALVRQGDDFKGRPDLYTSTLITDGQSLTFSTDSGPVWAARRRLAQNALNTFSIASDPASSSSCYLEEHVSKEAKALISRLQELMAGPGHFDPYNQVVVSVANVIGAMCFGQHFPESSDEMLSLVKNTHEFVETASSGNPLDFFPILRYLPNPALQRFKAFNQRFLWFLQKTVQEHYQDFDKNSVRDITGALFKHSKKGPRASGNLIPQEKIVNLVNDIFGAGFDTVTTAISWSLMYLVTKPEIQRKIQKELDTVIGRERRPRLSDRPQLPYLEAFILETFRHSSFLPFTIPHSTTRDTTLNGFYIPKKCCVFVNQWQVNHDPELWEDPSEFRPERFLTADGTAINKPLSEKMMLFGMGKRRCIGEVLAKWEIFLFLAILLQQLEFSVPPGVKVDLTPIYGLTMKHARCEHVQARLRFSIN
The experiment can be described thus: Vivid CYP450 Screening kit fluorescence assay.

A further experiment addresses CYP3A4 (Homo sapiens, UniProt P08684). Nature of the experiment: Vivid CYP450 Screening kit fluorescence assay.
The target in experiment [2] is T1, CYP1A1. The experiment can be described thus: P450-Glo CYP1A1 luminescence assay, positive control at […].

Sequence of CYP3A4 (P08684 2-503): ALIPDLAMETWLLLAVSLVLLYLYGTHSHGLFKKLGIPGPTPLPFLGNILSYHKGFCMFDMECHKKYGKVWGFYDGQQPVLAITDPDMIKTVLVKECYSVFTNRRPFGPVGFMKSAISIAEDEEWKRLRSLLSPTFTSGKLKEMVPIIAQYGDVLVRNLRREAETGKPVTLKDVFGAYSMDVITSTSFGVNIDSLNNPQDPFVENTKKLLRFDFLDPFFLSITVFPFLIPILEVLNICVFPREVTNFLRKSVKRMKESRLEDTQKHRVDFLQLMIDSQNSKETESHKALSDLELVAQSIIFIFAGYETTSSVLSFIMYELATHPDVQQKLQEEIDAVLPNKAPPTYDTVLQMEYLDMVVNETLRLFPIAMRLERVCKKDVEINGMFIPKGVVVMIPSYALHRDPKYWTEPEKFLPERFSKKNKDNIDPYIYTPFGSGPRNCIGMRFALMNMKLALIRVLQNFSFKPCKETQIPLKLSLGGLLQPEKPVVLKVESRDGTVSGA

One may read the IC50 as the concentration that inhibits the measured activity by half. Take `CC(=O)O[C@H]1CC(C)(C)C(=C=C/C(C)=C/C=C/C(C)=C/C=C/C=C(C)/C=C/C=C(\C)C(=O)C[C@@]23O[C@]2(C)C[C@@H](O)CC3(C)C)[C@](C)(O)C1` [Fx, fucoxanthin]: the IC50 is 12.5 µM on CYP1A1 [1], 49 µM on CYP1A2 and 11 µM against CYP3A4.

With `COc1ccc2[nH]c([S+]([O-])Cc3ncc(C)c(OC)c3C)nc2c1` (stereo not shown) [OMP, omeprazole], the “P450-Glo CYP1A1 luminescence assay, positive control at 1 μM” value at CYP1A1 [2] is listed as “significantly inhibited CYP1A1 activity, although the inhibition was weaker than that of omeprazole, a known CYP1A1 inhibitor”.

For the origin of these results see PMC3789093 (Oncology Letters, 2013).
